From ChEMBL document CHEMBL1201862, “PubChem BioAssay data set” (2004)
Activity calls are given as the source filed them. Rule as the data show it: actives have a measured IC50 and inactives only a lower limit.

Molecular target: Envelope glycoprotein gp160 (Human immunodeficiency virus 1, UniProt Q6QLK5)
Experiment: inhibitors of HIV fusion peptide binding, primary screen, biochemical, uHTS, fluorescence dequenching (AID 1986)

Sequence of Envelope glycoprotein gp160 (Q6QLK5 whole entry, the tested form may be a part): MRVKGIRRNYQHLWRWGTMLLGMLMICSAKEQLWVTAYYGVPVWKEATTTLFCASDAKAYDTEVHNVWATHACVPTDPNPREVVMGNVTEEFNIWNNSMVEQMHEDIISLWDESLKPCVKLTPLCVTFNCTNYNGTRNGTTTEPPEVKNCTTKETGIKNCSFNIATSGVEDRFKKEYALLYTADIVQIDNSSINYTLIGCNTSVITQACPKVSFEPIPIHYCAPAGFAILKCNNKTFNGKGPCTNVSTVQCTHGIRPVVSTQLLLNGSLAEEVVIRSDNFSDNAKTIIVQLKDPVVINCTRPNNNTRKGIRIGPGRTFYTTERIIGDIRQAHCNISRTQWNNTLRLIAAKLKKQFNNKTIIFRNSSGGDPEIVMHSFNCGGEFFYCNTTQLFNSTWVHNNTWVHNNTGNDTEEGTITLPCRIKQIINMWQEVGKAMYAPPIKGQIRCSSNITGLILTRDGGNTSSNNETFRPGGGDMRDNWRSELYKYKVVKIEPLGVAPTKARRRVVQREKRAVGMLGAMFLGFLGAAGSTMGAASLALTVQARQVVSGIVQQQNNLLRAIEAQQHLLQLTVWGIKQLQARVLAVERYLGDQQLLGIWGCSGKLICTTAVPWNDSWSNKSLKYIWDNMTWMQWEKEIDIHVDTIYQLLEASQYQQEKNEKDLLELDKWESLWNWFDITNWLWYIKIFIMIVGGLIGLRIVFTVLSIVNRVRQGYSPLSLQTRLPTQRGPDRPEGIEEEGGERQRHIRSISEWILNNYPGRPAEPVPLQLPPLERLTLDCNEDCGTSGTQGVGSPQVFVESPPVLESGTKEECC

## O=C(Nc1ccc(C(=O)O)cc1)/C(=C\C=C\c1ccccc1)NC(=O)c1cccc(Br)c1
  IC50: 22.6 µM (active)
